Read-outs that look alike come from different tables or passages of the source.
Experiments:
Assay type in all cases: cell-based
[1] = tested on: PC-3 prostate cancer cells; assay: MTT cytotoxicity assay, PC-3 prostate cancer cells; conditions: 24-36 hours at 37° C.
Protocol: (§1) Cytotoxicity of various compounds against tumor cells was performed using the MTT (3-[4,5-dimethylthiazol-2-yl]-2,5-diphenyl tetrazolium bromide) assay (Boehringer Mannheim Corp., Indianapolis, Ind.). Unless otherwise specified, all cell lines were obtained from the American Type Culture Collection (ATCC). Briefly, exponentially growing cells were seeded into a 96-well plate at a density of 2.5×10^4 cells/well and incubated for 36 hours at 37° C. prior to drug exposure. On the day of treatment, culture medium was carefully aspirated from the wells and replaced with fresh medium containing WHI-P239 at concentrations ranging from 0.1 to 250 μM. Triplicate wells were used for each treatment.
(§2) Human leukemic cell lines (NALM-6, MOLT-3), human breast tumor cells (BT20), prostate cancer cells (PC3), and glioblastoma cells (U373) were obtained from the American Type Culture Collection and maintained as a continuous cell line in Dulbecco's modified Eagles's medium supplemented with 10% fetal bovine serum and antibiotics.
(§3) The cells were incubated with the various compounds for 24-36 hours at 37° C. in a humidified 5% CO2 atmosphere. To each well, 10 μl of MTT (0.5 mg/ml final concentration) was added and the plates were incubated at 37° C. for 4 hours to allow MTT to form formazan crystals by reacting with metabolically active cells. The formazan crystals were solubilized overnight at 37° C. in a solution containing 10% SDS in 0.01 M HCl. The absorbence of each well was measured in a microplate reader (Labsystems) at 540 nm and a reference wavelength of […]. To translate the OD540 values into the number of live cells in each well, the OD540 values were compared to those on standard OD540 -versus-cell number curves generated for each cell line. The percent survival was calculated using the formula shown below. [formula]

[2] = tested on: BT-20 breast cancer cells; assay: MTT cytotoxicity assay, BT-20 breast cancer cells; conditions: Homo sapiens, 24-36 hours at 37° C.
Protocol: as §1, §2, §3

NALM-6 leukemia cells = assay: MTT cytotoxicity assay, NALM-6 leukemia cells; conditions: Homo sapiens, 24-36 hours at 37° C.
Protocol: as §1, §2, §3

U373 glioblastoma cells = assay: MTT cytotoxicity assay, U373 glioblastoma (brain tumor) cells; conditions: Homo sapiens, U373 MG, 24-36 hours at 37° C.
Protocol: as §1, §2, §3

SMILES | IC50 [1] [µM] | IC50 [2] [µM] | IC50 (NALM-6 leukemia cells; read-out: IC50 NALM-6 Leukemia) [µM] | IC50 (U373 glioblastoma cells) [µM] | IC50 (NALM-6 leukemia cells; leukemia cells, read-out: IC50 antileukemic potency (unit printed EM)) [µM]
Oc1ccc(Nc2nc(Nc3ccc(O)cc3)nc(Nc3ccc(O)cc3)n2)cc1 [WHI-P199, 2,4,6-Tri(4'-hydroxylphenyl)-amino-1,3,5-triazine] | 221 | 240 | > 250 | > 250 | –
Oc1ccccc1Nc1nc(Nc2ccccc2O)nc(Nc2ccccc2O)n1 [WHI-P205, 2,4,6-Tri(2'-hydroxylphenyl)-amino-1,3,5-triazine] | 102 | 108 | 21.5 | 224 | –
Oc1cccc(Nc2nc(Nc3cccc(O)c3)nc(Nc3cccc(O)c3)n2)c1 [WHI-P233, 2,4,6-Tri(3'-hydroxylphenyl)-amino-1,3,5-triazine] | 45.1 | 66.1 | 5.1 | 104 | 5.1
Oc1c(Br)cc(Nc2nc(Nc3cc(Br)c(O)c(Br)c3)nc(Nc3cc(Br)c(O)c(Br)c3)n2)cc1Br [WHI-P200, 2,4,6-Tri(3',5'-dibromo-4'-hydroxylphenyl)-amino-1,3,5-triazine] | 64.5 | 27.1 | 10.1 | > 250 | –
Brc1cccc(Nc2nc(Nc3cccc(Br)c3)nc(Nc3cccc(Br)c3)n2)c1 [WHI-P206, 2,4,6-Tri(3'-bromophenyl)-amino-1,3,5-triazine] | > 250 | > 250 | > 250 | > 250 | –
Oc1c(Cl)cc(Nc2nc(Nc3cc(Cl)c(O)c(Cl)c3)nc(Nc3cc(Cl)c(O)c(Cl)c3)n2)cc1Cl [WHI-P239, 2,4,6-Tri(3',5'-dichloro-4'-hydroxylphenyl)-amino-1,3,5-triazine] | 31.5 | 13.2 | 9.8 | 155 | –

From US6262053A, “Melamine derivatives as potent anti-cancer agents” (Parker Hughes Institute, priority 1999, dated 2001)
